Assay results as given in US20110245316A1, “PREVENTION OR DELAY OF ONSET OF ORAL MUCOSITIS” (SCICLONE PHARMACEUTICALS, INC., priority 2010, published 2011).

Tested on: cytokines and gene expression in CRT-treated HNC patients
Assay: Cytokine and gene microarray analyses of patient samples
Assay type: in vivo, human
Experimental: SCV-07 efficacy, dosing and scheduling parameters were assessed in hamster models of acute, fractionated and concomitant chemoradiation (CRT). […] A multicenter, prospective, blinded, randomized trial evaluated SCV-07's ability to alter OM in CRT-treated HNC patients (n=57). Cytokine and gene microarray analyses were performed for samples obtained before and on the last radiation day.

[1] = persons who clinically responded to SCV-07

For `N[C@H](CCC(=O)N[C@@H](Cc1c[nH]c2ccccc12)C(=O)O)C(=O)O` [SCV-07, γ-D-glutamyl-L-tryptophan], the ICAM (SCV-07-treated patients) was “Increases”, the IL-1alpha (SCV-07-treated patients) was “Decreases” and the IL-5 (SCV-07-treated patients) was “Decreases”. The IL-12 (SCV-07-treated patients) was “Increases”, the IL-15 (SCV-07-treated patients) was “Decreases” and the MIF (SCV-07-treated patients) was “Increases”. For the same molecule, the MIP-1beta (SCV-07-treated patients) was “Increases”, the MIP-3 alpha (SCV-07-treated patients) was “Decreases” and the Pro-inflammatory cytokine levels (SCV-07-treated patients) was “reduced”. The TNF-alpha (SCV-07-treated patients) was “Decreases”, the VCAM (SCV-07-treated patients) was “Increases” and the macrophage-associated cytokines (SCV-07-treated patients) was “Elevated”. For the same molecule, the “Gene expression (microarray)” value (SCV-07 vs placebo patients) was “Gene expression differences were noted”, the IL-21 [1] was “increases” and the MIF [1] was “increases”. For the same molecule, the VEGF [1] was “decrease”.
